Measured values: patent US5298502A, “Method and composition for photodynamic treatment and detection of tumors” (priority 1991, dated 1994)
Entries after “also recorded” stand apart in the source; their conditions may differ.

What was measured:
[1] = LD50, single oral dose, rats; conditions: rat, in vivo, single oral dose in corn oil containing 15% of the agent, 14-day period
[2] = LD50, single oral dose, mice; conditions: mouse, in vivo, single oral dose in corn oil and 5% of the agent, 14-day period
[3] = Tolerance of intraperitoneal injection in mice; conditions: mouse, in vivo, ip, 60% corn oil and 40% DMSO, read-out: tolerated dose
Procedure: c. In tests of the agent injected intraperitoneally in a mixture of 60% corn oil and 40% DMSO it was determined that the mice could tolerate a dose of 100 mg/kg.

[4] = test system: male Fisher 344 rat; experiment: Proto IX levels in tissues of rat fed agent for 27 days; format: in vivo; conditions: feed containing 5000 ppm for 27 days
Description: In another test, a male Fisher 344 rat was fed for 27 days with feed containing 5000 ppm of agent 6c and then sacrificed.
In the foregoing tests of rats and mice the animals were kept on a standard 12 hr. dark-12 hr. light cycle.

[5] = test system: HeLa cells; experiment: Proto IX production in HeLa cells, extract of cells alone (Example 7); format: cell-based; conditions: Homo sapiens, 100 uM agent, first formula (background-subtracted), read-out: increase in the amount of Proto IX relative to the control
Procedure: In a series of experiments along the lines of Examples 1 and 2, cultures of HeLa cells were incubated in the presence of 100 uM of various treating agents, listed below. The percentage given, next to each treating agent, indicates the increase in the amount of Proto IX produced in the presence of that treating agent relative to the amount produced by the control in the same experiment.
As in Examples 1 and 2, the data for this Example 7 were based on measurements of fluorescence (e.g. in counts per second, "cps"). In this Example, however, the measurements were made on an extract of the cells alone (in contrast to Examples 1 and 2 in which the disrupted cells and culture medium together were extracted), the fluorometric medium was the one described in Example 5 (containing 1% Tween-20, 50 mM Tris-HCl, 1 mM EDTA and 1 mM dithioerythritol, pH 8.5), and a cps measurement of the fluorometric medium per se was also made. In calculating the foregoing data for this Example, the following formula was used to calculate the percentage increases: [formula] where Ca is the counts per second for the sample resulting from treatment with the agent, Cc is the counts per second for the control sample, and Cm is the counts per second for the fluorometric medium per se (i.e. the background fluoroescence). On reviewing the data it was observed that Cc -Cm for this set of experiments was […] compared to Cm; for instance, individual measured values were 49025 and 52069 for Cc and 4295 for Cm. […] Accordingly, the data were recalculated using the formula: [formula] with the following results: 6a 336%; 5b 148%; 6c 154%; 6d 510%; 6e 320%; 6f 280%; 6g 329%; 6h 178%; 6i 171%; 6j 185%; 7a 118%; 7b 142%; 7c 103%; 7d 128%; 7e 173%; 7f 118%; 7q 155%; 7h 118%.

[6] = test system: chondrosarcoma; experiment: Photodynamic treatment of chondrosarcoma in rats fed the agent (Example 9); format: in vivo, Sprague-Dawley rats
Procedure: Specifically, three Sprague-Dawley rats of average weight 120 g were placed on a diet of feed containing 2000 ppm of the agent for a period of 6 days. On day 3, chondrosarcoma was implanted into the right hind limb of each rat by injecting 0.3 mL of a suspension of the tumor cells (about one million tumor cells). On day 6 the right hind limb of each rat was shaven and depilated, the size of each tumor was measured, and the tumor area and surrounding skin were then exposed to non-thermal doses of 630 nm light for a total of 270 J/cm^2.
In another set of experiments, 20 of the rats were placed on the same diet as above (i.e. feed containing 2000 ppm of agent), provided ad libitum, for 10 days before the treatment with the light, and the injection of the tumor cell suspension was made after the animals had been on the diet for 7 days. Such an injection causes the formation of a tumor having a well defined vascular network within 1 to 2 days. At the time of the treatment with light the tumors had diameters of 5-8 mm and were free of evident necrosis.

[7] = test system: SMT-F tumor; experiment: Photodynamic treatment of SMT-F tumor in mice fed the agent (Example 10); format: in vivo, female DBA/2 mice
Description: In this Example preliminary routine dosage experiments, using agent 6c of Example 6, were made, using female DBA/2 mice, four to six weeks old (14-18 grams). For tumor implantation into these animals, SMT-F tumor was aseptically removed from donor animals and cut into 1 mm^3 fragments. These tumor pieces were placed in Hank's Balanced Salt Solution containing penicillin and streptomycin. Tumor pieces were implanted via a torchar into the center of the right flank of shaved mice. […] The skin covering and surrounding the tumor was shaved and depilated two to three hours prior to light treatment.
The light treatment employed red light centered on 630 nm obtained from 1000 watt Xenon arc lamp system (Oriel Corporation) using a condenser which focused the light into a trifurcated fiberoptic bundle. A collimating lens was placed at the end of each fiberoptic in order to focus the image of the fiberoptic bundle on the treatment area: a spot of […] (1.33 cm^2). The design of the fiberoptic bundle ensured uniform distribution of light over this area. The output spectrum of the arc lamp was tuned to a peak intensity of 630 nm (602-670 nm range) using a water filter, a heat reflecting filter, and a 610 nm long pass filter. Light was delivered at a power density of 135 mW/cm^2. The possibility of tissue hyperthermia induced by this power density was evaluated by placing thermocouples at selected depths into the tumor during treatment, and measuring any temperature rise. No increase in tumor temperature greater than 2.4° C. (final temperature of 37.5°C.) was observed. During the light treatment the mice were restrained without anesthesia in specially designed holders and the tumors and surrounding skin were exposed to light to different degrees, from 0 to 600 J/cm^2. […]
In the course of the experiment the porphyrin fluorescence at 650 nm of the tumors (on exposure to fluorescing-inducing light at 630 nm) was measured with a fluorescence photometer.

[8] = 20 rats, 2000 ppm in feed for 10 days

Cc1nn(-c2cc(NS(C)(=O)=O)c(Cl)cc2Cl)c(=O)n1C(F)F [Agent 6c]
LD50 at 336 h [1]: > 2600 mg/kg
LD50 at 336 h [2]: > 700 mg/kg
MTD [3]: 100 mg/kg
Proto IX level in muscle tissue [4]: only a small increase
Proto IX levels in kidney, intestine, stomach and brain [4]: marked increases
Proto IX levels in tissues as compared to a control [4]: increased levels of Proto IX as compared to a control
activation at 100 µM [5]: 297%
tumors that regrew over time [6, 8]: ~95%
tumors with visible regression on the day following the light treatment [6, 8]: 75%
effect on surrounding skin and muscle tissue ([6]; 2000 ppm in feed for 6 days, 630 nm light 270 J/cm^2): slightly blanched and showed some swelling
occlusion of blood flow to the treatment area ([6]; sodium fluoroscin injection immediately after exposure to light): did not cause apparent occlusion of blood flow
tumor regression on the day after light treatment ([6]; three rats, 2000 ppm in feed for 6 days, 630 nm light 270 J/cm^2): two of the rats were found to be apparently free of their tumors; also recorded: the third rat showed almost complete regression of its tumor
mice with tumors cured (tumor free at 35 days post-treatment) ([7]; 4000 ppm in feed for three days, 450 J/cm^2 of light): about 33%
porphyrin fluorescence of the tumors at 650 nm ([7]; agent in feed): All animals showed an increase in tumor fluorescence
tumor regrowth between 35 and 91 days post-treatment ([7]; mouse, in vivo): No tumor regrowth
